pIC50: −log10 of the molar value.
Tests used:
NCI-H522 = assay: Growth inhibition of human NCI-H522 cells assessed as cell growth at 10 uM incubated for 48 hrs by sulforhodamine B assay relative to control; type: functional; conditions: NCI-H522, 48 h, read-out: Activity
SR [1] = assay: Growth inhibition of human SR cells incubated for 48 hrs by sulforhodamine B assay; type: functional, cell-based
HCT-116 [2] = assay: Growth inhibition of human HCT116 cells incubated for 48 hrs by sulforhodamine B assay; type: functional, cell-based; conditions: HCT-116, 48 h
UACC-62 [3] = assay: Growth inhibition of human UACC62 cells incubated for 48 hrs by sulforhodamine B assay; type: functional, cell-based; conditions: UACC-62, 48 h
OVCAR-3 [4] = assay: Growth inhibition of human OVCAR3 cells incubated for 48 hrs by sulforhodamine B assay; type: functional, cell-based; conditions: OVCAR-3, 48 h
786-0 = assay: Growth inhibition of human 786-0 cells incubated for 48 hrs by sulforhodamine B assay; type: functional, cell-based; conditions: 786-0, 48 h
RXF 393 = assay: Growth inhibition of human RXF393 cells incubated for 48 hrs by sulforhodamine B assay; type: functional, cell-based; conditions: RXF 393, 48 h
MDA-MB-468 = assay: Growth inhibition of human MDA-MB-468 cells incubated for 48 hrs by sulforhodamine B assay; type: functional, cell-based; conditions: MDA-MB-468, 48 h
NCI-H226 = assay: Growth inhibition of human NCI-H226 cells assessed as cell growth at 0.01 uM incubated for 48 hrs by sulforhodamine B assay relative to control; type: functional; conditions: NCI-H226, 48 h, read-out: Activity
OVCAR-3 [5] = assay: Growth inhibition of human OVCAR3 cells assessed as cell growth at 0.01 uM incubated for 48 hrs by sulforhodamine B assay relative to control; type: functional; conditions: OVCAR-3, 48 h, read-out: Activity
NCI/ADR-RES [6] = assay: Growth inhibition of human NCI/ADR-RES cells assessed as cell growth at 0.01 uM incubated for 48 hrs by sulforhodamine B assay relative to control; type: functional; conditions: read-out: Activity
T47D = assay: Growth inhibition of human T47D cells assessed as cell growth at 0.01 uM incubated for 48 hrs by sulforhodamine B assay relative to control; type: functional; conditions: read-out: Activity
HCT-116 [7] = assay: Growth inhibition of human HCT116 cells assessed as cell growth at 0.1 uM incubated for 48 hrs by sulforhodamine B assay relative to control; type: functional; conditions: HCT-116, 48 h, read-out: Activity
HCT-15 = assay: Growth inhibition of human HCT15 cells assessed as cell growth at 0.1 uM incubated for 48 hrs by sulforhodamine B assay relative to control; type: functional; conditions: HCT-15, 48 h, read-out: Activity
M14 = assay: Growth inhibition of human M14 cells assessed as cell growth at 0.1 uM incubated for 48 hrs by sulforhodamine B assay relative to control; type: functional; conditions: M14, 48 h, read-out: Activity
SK-MEL-28 [8] = assay: Growth inhibition of human SK-MEL-28 cells assessed as cell growth at 0.1 uM incubated for 48 hrs by sulforhodamine B assay relative to control; type: functional; conditions: SK-MEL-28, 48 h, read-out: Activity
SK-MEL-5 [9] = assay: Growth inhibition of human SK-MEL-5 cells assessed as cell growth at 0.1 uM incubated for 48 hrs by sulforhodamine B assay relative to control; type: functional; conditions: SK-MEL-5, 48 h, read-out: Activity
SR [10] = assay: Growth inhibition of human SR cells assessed as cell growth at 1 uM incubated for 48 hrs by sulforhodamine B assay relative to control; type: functional; conditions: read-out: Activity
NCI-H23 [11] = assay: Growth inhibition of human NCI-H23 cells assessed as cell growth at 1 uM incubated for 48 hrs by sulforhodamine B assay relative to control; type: functional; conditions: NCI-H23, 48 h, read-out: Activity
Malme-3M [12] = assay: Growth inhibition of human MALME-3M cells assessed as cell growth at 1 uM incubated for 48 hrs by sulforhodamine B assay relative to control; type: functional; conditions: read-out: Activity
SK-MEL-2 = assay: Growth inhibition of human SK-MEL-2 cells assessed as cell growth at 1 uM incubated for 48 hrs by sulforhodamine B assay relative to control; type: functional; conditions: SK-MEL-2, 48 h, read-out: Activity
NCI/ADR-RES [13] = assay: Growth inhibition of human NCI/ADR-RES cells assessed as cell growth at 1 uM incubated for 48 hrs by sulforhodamine B assay relative to control; type: functional; conditions: read-out: Activity
NCI-H23 [14] = assay: Growth inhibition of human NCI-H23 cells assessed as cell growth at 100 uM incubated for 48 hrs by sulforhodamine B assay relative to control; type: functional; conditions: NCI-H23, 48 h, read-out: Activity
SF-539 = assay: Growth inhibition of human SF539 cells assessed as cell growth at 100 uM incubated for 48 hrs by sulforhodamine B assay relative to control; type: functional; conditions: SF-539, 48 h, read-out: Activity
Malme-3M [15] = assay: Growth inhibition of human MALME-3M cells assessed as cell growth at 100 uM incubated for 48 hrs by sulforhodamine B assay relative to control; type: functional; conditions: read-out: Activity
SK-MEL-28 [16] = assay: Growth inhibition of human SK-MEL-28 cells assessed as cell growth at 100 uM incubated for 48 hrs by sulforhodamine B assay relative to control; type: functional; conditions: SK-MEL-28, 48 h, read-out: Activity
SK-MEL-5 [17] = assay: Growth inhibition of human SK-MEL-5 cells assessed as cell growth at 100 uM incubated for 48 hrs by sulforhodamine B assay relative to control; type: functional; conditions: SK-MEL-5, 48 h, read-out: Activity
UACC-62 [18] = assay: Growth inhibition of human UACC62 cells assessed as cell growth at 100 uM incubated for 48 hrs by sulforhodamine B assay relative to control; type: functional; conditions: UACC-62, 48 h, read-out: Activity
OVCAR-5 = assay: Growth inhibition of human OVCAR5 cells assessed as cell growth at 100 uM incubated for 48 hrs by sulforhodamine B assay relative to control; type: functional; conditions: OVCAR-5, 48 h, read-out: Activity
[19] = read-out: LC50 (the source's name)
[20] = read-out: pLC50 (the source's name) (converted)

COc1cc(Cl)cc(-c2nn(-c3cccc(NC(=O)Nc4ccc(Cl)c(C(F)(F)F)c4)c3)cc2-c2ccncc2)c1
growth at 10 µM (NCI-H522): -10.4% | GI50 (SR [1]; read-out: GI50): 1.06 µM | CC50 (SR [1]; [19]): > 100 µM | TGI (SR [1]; read-out: TGI): 43.8 µM | GI50 (SR [1]; read-out: pGI50 (converted)): 1.07 µM | CC50 (SR [1]; [20]): > 100 µM | TGI (SR [1]; read-out: pTGI (converted)): 4.37 µM | pIC50 (HCT-116 [2]): 6.20 | GI50 (HCT-116 [2]; read-out: GI50): 0.631 µM | CC50 (HCT-116 [2]; [19]): 7.3 µM | TGI (HCT-116 [2]; read-out: TGI): 23.6 µM | GI50 (HCT-116 [2]; read-out: pGI50 (converted)): 0.631 µM | CC50 (HCT-116 [2]; [20]): 7.24 µM | TGI (HCT-116 [2]; read-out: pTGI (converted)): 2.34 µM | pIC50 (UACC-62 [3]): 5.90 | GI50 (UACC-62 [3]; read-out: GI50): 1.27 µM | CC50 (UACC-62 [3]; [19]): 9.51 µM | TGI (UACC-62 [3]; read-out: TGI): 35.4 µM | GI50 (UACC-62 [3]; read-out: pGI50 (converted)): 1.29 µM | CC50 (UACC-62 [3]; [20]): 9.77 µM | TGI (UACC-62 [3]; read-out: pTGI (converted)): 4.9 µM | pIC50 (OVCAR-3 [4]): 6.35 | GI50 (OVCAR-3 [4]; read-out: GI50): 0.451 µM | CC50 (OVCAR-3 [4]; [19]): 54.6 µM | TGI (OVCAR-3 [4]; read-out: TGI): 25.5 µM | GI50 (OVCAR-3 [4]; read-out: pGI50 (converted)): 4.47 µM | CC50 (OVCAR-3 [4]; [20]): 55 µM | TGI (OVCAR-3 [4]; read-out: pTGI (converted)): 28.8 µM | GI50 (786-0; read-out: GI50): 1.59 µM | CC50 (786-0; [19]): 15.2 µM | TGI (786-0; read-out: TGI): 42.7 µM | GI50 (786-0; read-out: pGI50 (converted)): 1.58 µM | CC50 (786-0; [20]): 15.1 µM | TGI (786-0; read-out: pTGI (converted)): 9.77 µM | LC50 (RXF 393): 28.2 µM | GI50 (RXF 393; read-out: GI50): 1.71 µM | TGI (RXF 393; read-out: TGI): 44.2 µM | GI50 (RXF 393; read-out: pGI50 (converted)): 1.7 µM | TGI (RXF 393; read-out: pTGI (converted)): 9.33 µM | pIC50 (MDA-MB-468): 6.00 | GI50 (MDA-MB-468; read-out: GI50): 0.9 µM | CC50 (MDA-MB-468; [19]): > 100 µM | TGI (MDA-MB-468; read-out: TGI): 54.7 µM | GI50 (MDA-MB-468; read-out: pGI50 (converted)): 1 µM | CC50 (MDA-MB-468; [20]): > 100 µM | TGI (MDA-MB-468; read-out: pTGI (converted)): 5.5 µM | growth at 0.01 µM (NCI-H226): 97% | growth at 0.01 µM (OVCAR-3 [5]): 91% | growth at 0.01 µM (NCI/ADR-RES [6]): 98% | growth at 0.01 µM (T47D): 98% | growth at 0.1 µM (HCT-116 [7]): 97% | growth at 0.1 µM (HCT-15): 54% | growth at 0.1 µM (M14): 96% | growth at 0.1 µM (SK-MEL-28 [8]): 106% | growth at 0.1 µM (SK-MEL-5 [9]): 98% | growth at 1 µM (SR [10]): 53% | growth at 1 µM (NCI-H23 [11]): 60% | growth at 1 µM (Malme-3M [12]): 67% | growth at 1 µM (SK-MEL-2): 84% | growth at 1 µM (NCI/ADR-RES [13]): 66% | growth at 100 µM (NCI-H23 [14]): -50% | growth at 100 µM (SF-539): -78% | growth at 100 µM (Malme-3M [15]): -35% | growth at 100 µM (SK-MEL-28 [16]): -88% | growth at 100 µM (SK-MEL-5 [17]): -77% | growth at 100 µM (UACC-62 [18]): -85% | growth at 100 µM (OVCAR-5): -89%

From ChEMBL document CHEMBL4308841, “Synthesis, in vitro antiproliferative activity, and kinase inhibitory effects of pyrazole-containing diarylureas and diarylamides” (Eur J Med Chem, 2018)
